Measurements taken from ChEMBL document CHEMBL1149377, “8-(1-Naphthalen-2-yl-vinyl)-6,7,10-trioxaspiro (4.5) decane, a new 1,2,4-trioxane effective against rodent and simian malaria” (2006).

What was measured:
Plasmodium yoelii [1] = experiment: Antimalarial activity against Plasmodium yoelii infected Swiss mice (Mus musculus) at 192 mg/kg peroral dose; type: functional; conditions: route oral
Plasmodium yoelii [2] = experiment: Antimalarial activity in Plasmodium yoelii MDR infected Swiss mice (Mus musculus) at 96 mg/kg Intramuscular dose; type: functional; conditions: im
Plasmodium cynomolgi = experiment: Elimination of parasitaemia in Plasmodium cynomolgi infected Rhesus monkeys (Macaca mulatta) at 20 mg/kg intramuscular or 40 mg/kg peroral dose; type: functional, organism-based
Plasmodium yoelii [3] = experiment: Antimalarial activity against Plasmodium yoelii infected Swiss mice (Mus musculus) at 48 mg/kg Intramuscular dose; type: functional; conditions: im
Plasmodium yoelii [4] = experiment: Antimalarial activity against Plasmodium yoelii in Swiss mice (Mus musculus) model at 96 mg/kg peroral dose; type: functional; conditions: route oral
Plasmodium yoelii [5] = experiment: Antimalarial activity against Plasmodium yoelii infected Swiss mice (Mus musculus) at 72 mg/kg Intramuscular dose; type: functional; conditions: im
Plasmodium yoelii [6] = experiment: Antimalarial activity against Plasmodium yoelii infected Swiss mice (Mus musculus) at 48 mg/kg peroral dose; type: functional; conditions: route oral
Plasmodium yoelii [7] = experiment: Antimalarial activity against Plasmodium yoelii infected Swiss mice (Mus musculus) at 24 mg/kg intramuscular dose; type: functional; conditions: im

Work on C=C(c1ccc2ccccc2c1)C1COC2(CCCC2)OO1 (configuration not stated) yielded an inhibition in vivo at 192 mg/kg (Plasmodium yoelii [1]) of 100%, an inhibition in vivo at 96 mg/kg (Plasmodium yoelii [2]) of 100% and a clearance (Plasmodium cynomolgi) of 100%. The inhibition in vivo at 48 mg/kg (Plasmodium yoelii [3]) was 97%, the inhibition in vivo at 96 mg/kg (Plasmodium yoelii [4]) was 90% and the inhibition in vivo at 72 mg/kg (Plasmodium yoelii [5]) was 96%.
For C=C(c1ccc2c(c1)Cc1ccccc1-2)C1COC2(CCCCC2)OO1 (configuration not stated), the inhibition in vivo at 96 mg/kg (Plasmodium yoelii [2]) was 83% and the inhibition in vivo at 96 mg/kg (Plasmodium yoelii [4]) was 100%.
Work on C=C(c1cccc2ccccc12)C1COC2(CCCCC2)OO1 (configuration not stated) yielded an inhibition in vivo at 96 mg/kg (Plasmodium yoelii [2]) of 87% and an inhibition in vivo at 96 mg/kg (Plasmodium yoelii [4]) of 83%.
With C=C(c1ccc2c(ccc3ccccc32)c1)C1COC2(CCCCC2)OO1 (configuration not stated) the inhibition in vivo at 96 mg/kg (Plasmodium yoelii [2]) was 81% and the inhibition in vivo at 96 mg/kg (Plasmodium yoelii [4]) was 100%.
With C=C(c1cccc2ccccc12)C1COC2(CCCC2)OO1 (configuration not stated) the inhibition in vivo at 96 mg/kg (Plasmodium yoelii [2]) was 91% and the inhibition in vivo at 96 mg/kg (Plasmodium yoelii [4]) was 78%.
In the case of C=C(c1ccc(F)cc1)C1COC2(CCCCC2)OO1 (configuration not stated), the inhibition in vivo at 96 mg/kg (Plasmodium yoelii [2]) is reported as 89% and the inhibition in vivo at 96 mg/kg (Plasmodium yoelii [4]) is reported as 14%.
C=C(c1ccc2ccccc2c1)C1COC2(CCCCC2)OO1 (configuration not stated) was tested, and the inhibition in vivo at 96 mg/kg (Plasmodium yoelii [2]) was 97% and the inhibition in vivo at 48 mg/kg (Plasmodium yoelii [3]) was 60%.
C=C(c1ccc2ccc3ccccc3c2c1)C1COC2(CCCCC2)OO1 (configuration not stated) gave an inhibition in vivo at 96 mg/kg (Plasmodium yoelii [2]) of 13% and an inhibition in vivo at 96 mg/kg (Plasmodium yoelii [4]) of 99%.
Work on C=C(c1ccc2c(ccc3ccccc32)c1)C1COC2(CCCC2)OO1 (configuration not stated) yielded an inhibition in vivo at 96 mg/kg (Plasmodium yoelii [2]) of 100% and an inhibition in vivo at 96 mg/kg (Plasmodium yoelii [4]) of 100%.
Compound C=C(c1ccccc1)C1COC2(CCCC2)OO1 (configuration not stated) has an inhibition in vivo at 96 mg/kg (Plasmodium yoelii [2]) of 100% and an inhibition in vivo at 96 mg/kg (Plasmodium yoelii [4]) of 15%.
With CCN(CC)CCCC(C)Nc1ccnc2cc(Cl)ccc12 (configuration not stated) [CHLOROQUINE] the inhibition in vivo at 48 mg/kg (Plasmodium yoelii [6]) was 100% and the inhibition in vivo at 96 mg/kg (Plasmodium yoelii [4]) was 100%.
C[C@@H]1CC[C@H]2[C@@H](C)C(=O)O[C@@H]3O[C@@]4(C)CC[C@@H]1[C@]32OO4 [ARTEMISININ] was tested, and the inhibition in vivo at 48 mg/kg (Plasmodium yoelii [3]) was 100% and the inhibition in vivo at 24 mg/kg (Plasmodium yoelii [7]) was 100%.
C=C(c1ccc2c(c1)Cc1ccccc1-2)C1COC2(CCCC2)OO1 (configuration not stated) showed an inhibition in vivo at 96 mg/kg (Plasmodium yoelii [2]) of 100% and an inhibition in vivo at 96 mg/kg (Plasmodium yoelii [4]) of 100%.
With C=C(c1ccc2ccc3ccccc3c2c1)C1COC2(CCCC2)OO1 (configuration not stated) the inhibition in vivo at 96 mg/kg (Plasmodium yoelii [2]) was 99% and the inhibition in vivo at 96 mg/kg (Plasmodium yoelii [4]) was 64%.
